# Measured values published in patent US12338251B2, “Substituted macrocycles useful as kinase inhibitors” (TELIGENE LTD, priority 2019, dated 2025).
# pIC50: −log10 of the molar value.
# Key:
# [1] = PK study (bioavailability); assay type: in vivo; conditions: rats; 1 mg/kg IV and 10 mg/kg orally; parent compound plus major metabolites
# Experimental: A representative protocol for the PK (pharmacokinetic) assay was as followed: Compounds were given either IV or orally to the same animals. The dose for each compound was 1 mg/kg (volume 5 ml/kg) IV and 10 mg/kg (volume 10 ml/kg) orally. The formulation for IV was in 10% SOLUTOL® HS 15+90% Phosphate-Buffered Saline at […]. A 100% (0.5% Tween 80 in 0.5% methylcellulose (MC) in water) at […] suspension was used for the oral formulation. Sample collection: for the IV route, plasma samples were collected at the time points of 0.083, 0.25, 0.5, 1, 2, 4, 8 and 24 hr. For the oral route, plasma samples were collected at the time points of 0.25, 0.5, 1, 2, 4, 8 and 24 hr. Total bioavailability is calculated by adding parent compound and major metabolites. Analysis: LC-MS/MS was used to calculate PK parameters: t1/2, tmax, Cmax, Vss and AUC, etc.
# The following Table E lists selected compounds and their bioavailability (F).
# Compound 3 and 4 have much improved bioavailability (F=100%).
# [2] = Stability test for one month, purity by HPLC; assay type: physicochemical; conditions: HPLC purity after 30 days at 0° C.
# [3] = target: CYP 3A4 (Homo sapiens (Human), UniProt P08684); test: P450 3A4 assay in human liver microsomes (CYP inhibition); assay type: in vitro ADME; conditions: for pIC50: testosterone probe substrate
# CYP 3A4, sequence (P08684 whole entry): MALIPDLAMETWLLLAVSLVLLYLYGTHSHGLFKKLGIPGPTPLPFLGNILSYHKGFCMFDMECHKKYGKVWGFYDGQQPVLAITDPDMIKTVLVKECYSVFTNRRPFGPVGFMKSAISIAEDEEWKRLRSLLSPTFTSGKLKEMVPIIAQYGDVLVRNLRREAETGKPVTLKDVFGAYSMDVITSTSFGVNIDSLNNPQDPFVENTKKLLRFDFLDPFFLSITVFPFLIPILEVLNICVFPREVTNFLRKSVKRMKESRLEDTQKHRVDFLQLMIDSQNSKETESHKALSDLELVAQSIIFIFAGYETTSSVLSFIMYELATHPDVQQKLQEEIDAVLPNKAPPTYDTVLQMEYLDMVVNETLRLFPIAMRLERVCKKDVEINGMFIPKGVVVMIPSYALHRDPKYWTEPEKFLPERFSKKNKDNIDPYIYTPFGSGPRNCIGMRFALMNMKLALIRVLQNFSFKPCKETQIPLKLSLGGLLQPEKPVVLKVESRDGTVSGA
# Experimental: The final concentrations of DMSO and acetonitrile were equal to or less than 0.1%.
# The column temperature was maintained at ambient temperature (25° C.). […] The flow rate was maintained at 0.6 mL/min.
# [4] = Stability test for one month, purity by HPLC; assay type: physicochemical; conditions: for Day 30 at 25° C. (purity): HPLC purity after 30 days at 25° C.; for Day 0 (purity): HPLC purity, baseline of stability test
# Experimental: Stability test: The compounds were tested for their stability at 25° C. for one month, using HPLC to measure the purity. […] Compound 2 is not stable at −30° C. […] (Table F).
# [5] = Solubility measurement (HPLC); assay type: physicochemical; conditions: for solubility at 30 min: pH 7.0 buffer solution (20 mM), aqueous buffer, thermodynamic from solid
# Experimental: Preparation of reference standard solution: 2 mg of Compound was added individually to 100 mL volumetric flask each. The compound was diluted with acetonitrile to 100 mL.
# Preparation of sample solution: 2 mg of Compound was added individually to 2 mL eppendorf tube (EP), followed by addition of 1 mL of pH 7.0 or 10.0 buffer solution (20 mM). The solution was shaken for 2 minutes and left for 30 minutes at 25° C. After standing for 30 minutes, precipitate was formed in the bottom of the EP. The solutions were filtered through a 0.2 um membrane filter, and then diluted by 50 times with water.
# The standard and sample solutions were injected into the HPLC on a Shim-Pack CLC-ODS C18 column (150 mm×6.0 mm, 5 μm) with the same volume. The mobile phase consisted of acetonitrile with 2% trichloromethane—20 mM KH2PO4 buffer (pH=7.0) at a flow rate of 1 mL/minute (40:60). The detection wavelength is at 264 nm. Calculation: solubility of sample=the concentration of standard×Area of sample×50/Area of standard.
# [6] = tested on: BaF3-SLC34A2-ROS1 cell line xenograft; test: In vivo xenograft assay, subcutaneous BaF3-SLC34A2-ROS1 in nude mice; set-up: species or system Balb/c nude mice; conditions: 5 mg/kg oral gavage once daily; for Tumor weight at Day 20: nude mice, control 2.118 g
# Source text: A representative protocol for the in vivo experiment is as followed to establish the subcutaneous BaF3—SLC34A2-ROS1 cell line xenograft model in nude mice and to evaluate the in vivo therapeutic efficacy of the compounds:
# Animals: Male Balb/c nude mice (6˜8 weeks old) were obtained from SLAC Laboratory Animal, Shanghai, China. Animals were maintained under SPF conditions in sterile filter top cages and housed on HEPA-filtered ventilated racks. Animals received sterile rodent chow and water ad libitum.
# Cell line: BaF3—SLC34A2-ROS1, S.C.
# Xenograft Models in Athymic Mice: Cells for implantation into athymic mice were harvested and pelleted by centrifugation at 1200 r/min for 5 min. Cells were washed once and resuspended in sterile PBS buffer with 5×10^6 in 200 μl. Then cells were implanted s.c. into the right scapular region of each mouse and allowed to grow to 200-300 mm^3 before the administration of compound.
# Preparation of the Dose Formulation: each compound was suspended in 0.5% sodium carboxymethyl cellulose (CMC-Na). […]
# Observations: After inoculation, the animals are checked daily for morbidity and mortality. At the time of routine monitoring, the animals are checked for any effects of tumor growth and treatments on normal behavior such as mobility, body weight gain/loss (body weights are measured twice weekly or every other day), eye/hair matting and any other abnormal effect. Death and observed clinical signs are recorded on the basis of the numbers of animals within each subset.
# Tumor Size Measurements: Tumor volume was determined by measurement with electronic vernier calipers every 3 days and tumor volume was calculated as the product of its length×width2×0.5. […]
# Percentage (%) inhibition values were measured for drug-treated mice compared with vehicle-treated mice and are calculated as follows: Tumor growth inhibition (TGI, %)=100−[MTV treated/MTV control]×100, where MTV is the median tumor volume. Significant differences between the treated versus the control groups (p<0.05) were determined using t test. […]
# [7] = tested on: Ba/F3 EML4-ALK-WT; test: Cell proliferation assay (CTG), Ba/F3 EML4-ALK-WT; assay type: cell-based; conditions: Mus musculus, BaF3, 72 hours
# Experimental: (§1) A Representative Number of Compounds were Assayed Against BAF3 Cell Lines Using the Cell Proliferation Assays:
# (§2) Cell Culture and Inoculation:
# (§3) 1. Cells in logarithmic growth phase were harvested and counted by platelet counter. Trypan blue exclusion method was used to detect the cell viability to ensure that the cell viability was above 90%.
# (§4) 2. Adjust the cell concentration; 90 μL cell suspension was added to 96 well plates respectively.
# (§5) 3. Cells in 96-well plate were cultured overnight at 37° C., 5% CO2 and 95% of humidity.
# (§6) Drug Dilution and Dosing:
# (§7) 1. Prepare 10-fold drug solution with the highest concentration of 100 μM, 9 concentrations and 3.16-fold dilution. Add 10 μL of drug solution to each well of 96-well plate inoculated with cells, and set up 3 duplicate wells for each drug concentration.
# (§8) 2. Cells in 96-well plates with drug added were cultured for 72 hours at 37° C., 5% CO2 and 95% of humidity, and then […]-GLO® (CTG) analysis was performed.
# (§9) 1. Melt CTG reagent and equilibrate cell plates to room temperature for 30 minutes.
# 2. […]
# (§10) 5. Read the cold light value.
# (§11) The data were analyzed by GraphPad Prism 5.0 software, and the dose-effect curve was obtained by fitting the data by nonlinear S-curve regression, and IC50 value was calculated accordingly.
# (§12) Cell survival rate (%)=(Lumdrug to be tested−Lumculture solution control)/(Lumcell control−Lumculture solution control)×100%. Lum is luminescence. […]
# [8] = tested on: Ba/F3 EML4-ALK-L1196M; test: Cell proliferation assay (CTG), Ba/F3 EML4-ALK-L1196M; assay type: cell-based; conditions: 72 hours
# Experimental: as §1, §2, §3, §4, §5, §6, §7, §8, §9
# 2. […]
# as §10, §11, §12
# [9] = One-month toxicity studies in rats; assay type: in vivo; conditions: 8 mg/kg/day females and 16 mg/kg/day males
Structure (SMILES),Day 30 at 0° C. (purity) [2] [%],Day 30 at 25° C. (purity) [4] [%],Day 0 (purity) [4] [%],Stability at 0° C. or 25° C. (in words) ([4]; one month),"solubility at 30 min ([5]; pH 7.0 buffer (20 mM), 25° C.) [µg/mL]",pIC50 [3],Tumor weight at Day 20 [6] [g],also measured
"C[C@H]1Oc2cc(cnc2NC(=O)CN)-c2c(nn(C)c2C#N)CN(C)C(=O)c2ccc(F)cc21 [Compound 2, reference compound]",92.58,86.14,97.28,–,–,5.00,–,"Total F (%) (oral bioavailability) [1]: 49%; Stability at 25° C. (in words) ([4]; 25° C., one month): decomposed significantly; Major impurity A at Day 0 ([4]; HPLC, Day 0): 1.13%; Major impurity B at Day 0 ([4]; HPLC, Day 0): 1.39%; Major impurity A at Day 30 ([4]; HPLC, Day 30 at 25° C.): 3.98%; Major impurity B at Day 30 ([4]; HPLC, Day 30 at 25° C.): 8.34%; Stability at −30° C. (in words) ([4]; −30° C.): not stable; Solubility at pH 7.0 ([5]; pH 7.0 buffer (20 mM), 25° C.): 0.091 mg/mL"
CC(=O)NCC(=O)Nc1ncc2cc1O[C@H](C)c1cc(F)ccc1C(=O)N(C)Cc1nn(C)c(C#N)c1-2 [Compound 3],99.18,99.16,99.24,no significant changes,772,3.55,0.327,Tumor growth inhibition at day 20 (in words) ([6]; compared with Lorlatinib): significant better tumor growth inhibition; CYP 3A4 inhibition (in words) ([3]; compared with Lorlatinib and Compound 2): much weaker inhibition; pIC50 [7]: 8.55; Solubility at pH=7.0 (in words) ([5]; compared with compound 2 and Lorlatinib): much higher solubility; pIC50 [8]: 7.29

# The next lines start with results.
Day 30 at 0° C. (purity) [2] [%],Day 30 at 25° C. (purity) [4] [%],Day 0 (purity) [4] [%],Stability at 0° C. or 25° C. (in words) ([4]; one month),"solubility at 30 min ([5]; pH 7.0 buffer (20 mM), 25° C.) [µg/mL]",Structure (SMILES),pIC50 [3],Tumor weight at Day 20 [6] [g],also measured
–,–,–,–,29,"C[C@H]1Oc2cc(cnc2N)-c2c(nn(C)c2C#N)CN(C)C(=O)c2ccc(F)cc21 [Lorlatinib, reference compound]",–,0.531,Prothrombin time [9]: shorten time; #LYMPH and Red blood cell in blood ([9]; end of administration and recovery periods): decreased
99.01,99.05,99.05,no significant changes,–,CCOC(=O)NCC(=O)Nc1ncc2cc1O[C@H](C)c1cc(F)ccc1C(=O)N(C)Cc1nn(C)c(C#N)c1-2 [Compound 5],–,–,–
97.13,97.25,97.23,no significant changes,–,COC(=O)NCC(=O)Nc1ncc2cc1O[C@H](C)c1cc(F)ccc1C(=O)N(C)Cc1nn(C)c(C#N)c1-2 [Compound 4],–,–,–
